Assays:
TPH1 = target: T1, TPH1 (Homo sapiens, UniProt P17752); assay: Differential scanning fluorimetry (DSF) thermal stability assay; format: binding; conditions: DSF, 50 μM compound
T1 construct: doubly truncated human TPH1 (ΔNH102-ΔCOOH402); made in house; host or cells: E. coli BL21(DE3)
Procedure: A fluorescence-based thermal stability assay (differential scanning fluorimetry, DSF) was used for testing the effects of HDIs on the thermal stability of TPH1.
For initial high throughput screening (HTS), compounds were prepared at a concentration of 10 mM (in some cases, 5 mM) in 100% DMSO. Initial HTS screening was performed on TPH1 with and without compounds using a LightCycler 480 Real-Time PCR System (Roche Applied Science). TPH1 was diluted to 0.075 mg/mL in 50 mM Tris pH 8.0, 200 mM NaCl, 0.5 mM TCEP, and 5% glycerol with 5x SYPRO Orange. Compounds were added to a final concentration of 50 μM. Controls with 0.5% DMSO were performed on each 384-well microplate. Unfolding curves were recorded from 20 to 95 °C at a scan rate of 2 °C/min and monitored at excitation = 465 nm and emission = 610 nm. Selected hits were validated further by serial dilution from 250 μM to 122 nM, keeping the DMSO concentration constant at 2%.
DSF data were analyzed using HTSDSF Explorer.[55] Melting temperature (Tm) was calculated from the maximum value of the first derivative of the unfolding curve. ΔTm (Tm with compound–averaged Tm in DMSO controls) was plotted for all validated curves and a threshold of 2 °C was set (typically, cutoff at ΔTm = 3-fold the SD of the Tm of the DMSO control).
Preliminary binding constants (KD) were calculated by fitting data to the equation [drawing 1] where ΔH0 is the enthalpy of the unfolding of the protein in the presence of ligand ([L]), and R is the gas constant.

[1] = tested on: AAAHs (PAH, TH, TPH1, TPH2); assay: Enzyme activity assays, statement over all four AAAHs; format: biochemical, human
Procedure: The activity of purified PAH, TH, TPH1, and TPH2 was measured using high-performance liquid chromatography (HPLC) as previously described.[50],[56],[57]
TPH1 enzymatic activity assays were performed with the selected hits from the DSF screening in the presence and absence of 50 μM of each compound. The final concentration of DMSO was 0.5% (v/v), and control experiments used 0.5% DMSO in the absence of ligand. Assays were performed in a standard reaction mixture containing 40 mM Hepes pH 7.0, 200 mM NaCl, 0.1 mg/mL catalase, 0.5 mg/mL BSA, 10 μM ferrous ammonium sulfate, and 30 μM L-tryptophan (L-Trp). Compounds were incubated with TPH1 (0.02 mg/mL) in the reaction mixture for 10 min on ice. The enzymatic reaction was initiated by adding 200 μM BH4 and 2 mM DTT (final concentrations) and stopped by precipitation with 2% (v/v) acetic acid in ethanol after 3 min at 37 °C. The product, 5-hydroxy-tryptophan (5-OH-Trp), was quantified by HPLC utilizing a fluorescence monitor set at 302 and 350 nm for excitation and emission, respectively. […]. […]
PAH activities were performed in a standard reaction mixture containing 100 mM Hepes (pH 7.0), 0.04 mg/mL catalase, 0.05% BSA, 10 μM ferrous ammonium sulfate, and 1 mM phenylalanine (Phe). […] The product, L-Tyrosine (L-Tyr), was quantified by HPLC utilizing a fluorescence monitor set at 274 and 304 nm for excitation and emission, respectively. […]

HDAC 8 = conditions: human recombinant HDAC; ref 2 (PMID: 23829483); cited from earlier work
HDAC 1 = conditions: human recombinant HDAC; ref 2 (PMID: 23829483); cited from earlier work
serotonin transporter = tested on: serotonin transporter; parameters: method as in PMID 21785940; conditions: neuroblastoma cells; cited from earlier work
dopamine transporter = tested on: dopamine transporter; parameters: method as in PMID 21785940; conditions: neuroblastoma cells; cited from earlier work

T1 sequence (P17752 102-402): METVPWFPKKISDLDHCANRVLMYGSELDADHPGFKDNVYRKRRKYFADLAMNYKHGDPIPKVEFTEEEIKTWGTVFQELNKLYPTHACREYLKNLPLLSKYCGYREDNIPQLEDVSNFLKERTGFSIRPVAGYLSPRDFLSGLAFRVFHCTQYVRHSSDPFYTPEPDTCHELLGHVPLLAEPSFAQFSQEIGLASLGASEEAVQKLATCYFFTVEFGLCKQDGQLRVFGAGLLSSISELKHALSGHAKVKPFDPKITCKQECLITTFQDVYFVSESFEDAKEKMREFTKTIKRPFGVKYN

| Structure (SMILES) | Tm (°C) ± SD (°C), primary screen (TPH1; 0.075 mg/mL TPH1, 0.5% DMSO, three independent measurements (a: duplicates)) [°C] | ΔTm at 50 µM (TPH1; vs averaged Tm of 0.5% DMSO controls, read-out: ΔTm (°C) ± SD (°C), primary screen) [°C] | inhibitory activity against all the AAAHs [1] | IC50 (HDAC 8) [µM] | IC50 (HDAC 1) [nM] | increase of serotonin transporter expression (serotonin transporter) [fold] | increase of dopamine transporter expression (dopamine transporter) [fold] |
| --- | --- | --- | --- | --- | --- | --- | --- |
| Nc1ccccc1NC(=O)c1ccc(CNc2nccc(-c3cccnc3)n2)cc1 [mocetinostat, reference compound] | 54.5 ± 0.2 | -0.8 | completely inactive | 35 ± 4.4 | 98 ± 55 | – | – |
| CC(/C=C/C(=O)NO)=C\[C@@H](C)C(=O)c1ccc(N(C)C)cc1 [trichostatin A] | – | – | – | – | – | 15 | 45 |

From article PMC11587510, “Aromatic Amino Acid Hydroxylases as Off-Targets of Histone Deacetylase Inhibitors” (ACS Chemical Neuroscience, 2024)
